Assay results taken from publication PMC3265452 (PLoS Neglected Tropical Diseases, 2012).
Where a name gives a salt, the structure may show the parent alone.

target: AaDOP2 (Aedes aegypti, UniProt H6D5H2); experiment: AaDOP2 antagonist screen of the LOPAC1280 library (HEK-CRELuc-Aadop2 cells, luminescence); assay type: cell-based; conditions: not given
Sequence (H6D5H2 1-476): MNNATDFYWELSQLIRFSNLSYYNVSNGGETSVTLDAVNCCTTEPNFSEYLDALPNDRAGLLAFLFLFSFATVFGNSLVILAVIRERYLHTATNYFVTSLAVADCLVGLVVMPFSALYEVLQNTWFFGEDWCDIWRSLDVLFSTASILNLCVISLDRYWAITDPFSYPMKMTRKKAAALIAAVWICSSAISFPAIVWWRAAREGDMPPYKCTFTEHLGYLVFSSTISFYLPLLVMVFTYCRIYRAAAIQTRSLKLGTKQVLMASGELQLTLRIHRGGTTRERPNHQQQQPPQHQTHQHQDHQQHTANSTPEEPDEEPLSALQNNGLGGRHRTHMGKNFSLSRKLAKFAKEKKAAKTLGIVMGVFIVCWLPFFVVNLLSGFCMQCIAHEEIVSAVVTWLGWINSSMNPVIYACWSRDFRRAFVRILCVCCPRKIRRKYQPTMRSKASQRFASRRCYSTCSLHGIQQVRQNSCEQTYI

SMILES | Compound effect (percent receptor signaling in presence of test compound, relative lux units relative to the SCH23390 control)
Cc1[nH]c2ccc(O)cc2c1CCN.O=C(O)/C=C\C(=O)O [Compound 818, 2-Methyl-5-hydroxytryptamine maleate] | 102
CC(N)Cc1c[nH]c2ccc(O)cc12.O=C(O)/C=C\C(=O)O (stereo not drawn) [Compound 819, alpha-Methyl-5-hydroxytryptamine maleate] | 92
Cc1ccccc1N1C(=O)c2cc(S(N)(=O)=O)c(Cl)cc2NC1C (stereo not drawn) [Compound 820, Metolazone] | 90
S=C=Nc1cccc(C2(N3CCCCC3)CCCCC2)c1 [Compound 821, Metaphit methanesulfonate] | 93
CC[C@@H](CO)NC(=O)[C@@H]1C=C2c3cccc4c3c(cn4C)C[C@H]2N(C)C1 [Compound 823, Methysergide maleate] | 82
CNC(=O)OCC[N+](C)(C)C [Compound 824, Methylcarbamylcholine chloride] | 103
CSc1ccc2c(c1)C(N1CCN(C)CC1)Cc1ccccc1S2 (stereo not drawn) [Compound 825, Methiothepin mesylate] | 1
CN1C[C@@H](NS(=O)(=O)N(C)C)C[C@@H]2c3cccc4c3c(cn4C)C[C@H]21 [Compound 827, Mesulergine hydrochloride] | 88
Cl.N=c1c[n+](N2CCOCC2)[n-]o1 [Compound 830, 3-Morpholinosydnonimine hydrochloride] | 90
COc1ccc2c(c1)[C@@]13CCCC[C@H]1[C@@H](C2)NCC3.Cl [Compound 831, 3-Methoxy-morphanin hydrochloride] | 94
O=C(O)/C(=C/c1c(C(=O)O)[nH]c2cc(Cl)cc(Cl)c12)c1ccccc1 [Compound 833, MDL 105,519] | 83
Cc1ccccc1CNc1ncnc2c1ncn2[C@@H]1O[C@H](CO)[C@@H](O)[C@H]1O [Compound 834, Metrifudil] | 96
O=C(O)c1cccnc1Nc1cccc(C(F)(F)F)c1 [Compound 837, Niflumic acid] | 90
CS(=O)(=O)Nc1ccc([N+](=O)[O-])cc1Oc1ccccc1 [Compound 838, Nimesulide] | 88
O=C(CCNNC(=O)c1ccncc1)NCc1ccccc1 [Compound 839, Nialamide] | 87
CN1Cc2c(N)cccc2C(c2ccccc2)C1 (stereo not drawn) [Compound 840, Nomifensine maleate] | 42
Cl.Cl.Oc1ccc2c3c1O[C@H]1c4[nH]c5c(c4C[C@@]4(O)[C@@H](C2)N(CC2CC2)CC[C@]314)C[C@@]1(O)[C@H]2Cc3ccc(O)c4c3[C@@]1(CCN2CC1CC1)[C@H]5O4 [Compound 841, nor-Binaltorphimine dihydrochloride] | 98
CN(C)C(=O)Oc1cccc([N+](C)(C)C)c1 [Compound 842, Neostigmine bromide] | 100
CC1(C)CCC(NC(=O)[C@@H](N)CCC(=O)O)CC1 [Compound 843, CR 2249] | 92
O=[N+]([O-])c1ccc(CSc2ncnc3c2ncn3[C@@H]2O[C@H](CO)[C@@H](O)[C@H]2O)cc1 [Compound 844, S-(4-Nitrobenzyl)-6-thioinosine] | 93
O=C1CC[C@@]2(O)[C@H]3Cc4ccc(O)c5c4[C@@]2(CCN3CC2CC2)[C@H]1O5 [Compound 845, Naltrexone hydrochloride] | 101
N[C@@H](CCC(=O)N[C@@H](CSN=O)C(=O)NCC(=O)O)C(=O)O [Compound 850, S-Nitrosoglutathione] | 100
O=C(O)/C=C1\CCCc2ccccc2C1O (stereo not drawn) [Compound 851, NCS-382] | 97
CCn1cc(C(=O)[O-])c(=O)c2ccc(C)nc21.[Na+] [Compound 852, Nalidixic acid sodium] | 99
Oc1ccc2c3c1O[C@H]1[C@@H](O)CC[C@@]4(O)[C@@H](C2)N(CC2CCC2)CC[C@]314 [Compound 853, Nalbuphine hydrochloride] | 96
O=C(O)c1cc([N+](=O)[O-])ccc1NCCCc1ccccc1 [Compound 854, 5-Nitro-2-(3-phenylpropylamino)benzoic acid] | 99

same assay, conditions: 10 µM compound, 300 nM dopamine, 2 hr; hit = compound effect <20

SMILES | Compound effect (percent receptor signaling in presence of test compound, relative lux units relative to the SCH23390 control) [%]
C[C@](N)(Cc1ccc(O)c(O)c1)C(=O)O [Compound 822, L-alpha-Methyl DOPA] | 98
CC(C)N(CCC(=O)c1ccc2ccccc2c1)Cc1ccccc1.Cl [Compound 829, ZM 39923 hydrochloride] | 83
COc1ccccc1N1CCN(CCN(C(=O)c2ccc(I)cc2)c2ccccn2)CC1.Cl [Compound 832, p-MPPI hydrochloride] | 73
COc1ccccc1N1CCN(CCN(C(=O)c2ccc(F)cc2)c2ccccn2)CC1.Cl.Cl [Compound 835, p-MPPF dihydrochloride] | 81
Br.COc1ccccc1N1CCN(CCCCN2C(=O)c3ccccc3C2=O)CC1 [Compound 848, NAN-190 hydrobromide] | 42
O=C(Nc1cc(C(=O)Nc2ccc(S(=O)(=O)[O-])cc2S(=O)(=O)[O-])cc(C(=O)Nc2ccc(S(=O)(=O)[O-])cc2S(=O)(=O)[O-])c1)Nc1cc(C(=O)Nc2ccc(S(=O)(=O)[O-])cc2S(=O)(=O)[O-])cc(C(=O)Nc2ccc(S(=O)(=O)[O-])cc2S(=O)(=O)[O-])c1.[Na+].[Na+].[Na+].[Na+].[Na+].[Na+].[Na+].[Na+] [Compound 855, NF449 octasodium salt] | 112

same assay, conditions: read-out: % of the SCH23390 effect (percent inhibition of receptor response relative to the SCH23390 control)

SMILES | inhibition at 10 µM [%]
CSc1ccc2c(c1)C(N1CCN(C)CC1)Cc1ccccc1S2 (stereo not drawn) [Compound 825, Methiothepin mesylate] | 99
